Assay results taken from publication PMC10470053, “Diverse p120RasGAP interactions with doubly phosphorylated partners EphB4, p190RhoGAP, and Dok1” (The Journal of Biological Chemistry, 2023).
Values joined by “and” are separate entries in the source; they are usually repeats but may differ in a detail not shown here. Equal values may be shown once. Square brackets hold non-standard residues; d marks the D form. Peptide text beside a SMILES is read from it. pY = N[C@@H](Cc1ccc(OP(=O)(O)O)cc1)C(=O)O

What was measured:
[1] = molecular target: T1, RasGAP^232(mut) (R398E/K400E, C-SH2 mutant) (Homo sapiens, UniProt P20936, C236S/C261S/C372S/C402S/K400E/R398E); assay: Isothermal titration calorimetry, C-SH2 mutant RasGAP^232(mut); format: binding
T1 construct: (residues 174–444, termed RasGAP^232); hexahistidine (TEV-cleavable) (N, cleaved yes); made in house; host or cells: E. coli Rosetta (DE3)
T1 sequence (P20936 174-444 C236S/C261S/C372S/R398E/K400E/C402S): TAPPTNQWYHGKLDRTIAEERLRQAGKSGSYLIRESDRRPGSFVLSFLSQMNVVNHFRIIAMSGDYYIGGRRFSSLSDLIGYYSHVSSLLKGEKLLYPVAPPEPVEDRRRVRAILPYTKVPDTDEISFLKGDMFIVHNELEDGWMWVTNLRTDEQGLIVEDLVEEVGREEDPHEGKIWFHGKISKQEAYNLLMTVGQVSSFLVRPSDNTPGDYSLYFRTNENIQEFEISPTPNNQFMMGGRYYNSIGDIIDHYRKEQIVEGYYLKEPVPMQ
Experimental: One possibility for the difference in binding affinity of EphB4 compared to the other dually phosphorylated peptides is that only a single SH2 domain engages EphB4 at any time. This is supported by the observation that the Kd of binding, 2 μM, is similar to other reported individual SH2 phosphotyrosine interactions (for examples see ([60])) and the evidence of only one inflection point in the doubly phosphorylated EphB4–binding isotherm (Figs. 2B and S3). To assess this hypothesis, we generated two RasGAP^232 mutants that disrupt the phosphotyrosine-binding sites of either the N- or C-SH2 domains and conducted further ITC experiments. […] For the ‘FLVR-unique” C-terminal SH2, we introduced a double mutation R398E/K400E, to abrogate phosphotyrosine binding guided by our previous work ([52]), termed RasGAP^232(mut) (Fig. 2D). We additionally generated a double mutant of both SH2 domains, RasGAP^2(mut)32(mut), and purified each of these proteins (Fig. S2, B–D). […] We then assessed phosphopeptide binding of the single mutant SH2 domains. […] This is similar to the Kd of 2 ± 0.7 μM observed for titration of this peptide into WT RasGAP^232.
To attempt to parse the specificity of RasGAP for the more N- or C-terminal EphB juxtamembrane phosphotyrosines pY590 and pY596, we assessed the affinity of RasGAP^232(mut) for shorter synthesized EphB4 peptides corresponding to either of the two phosphotyrosines (Fig. 1C). […] Alternatively, the C-terminal SH2 may contribute to a second weaker interaction in a tandem interaction. […] This low-affinity interaction represents a primarily single N-SH2-dominant interaction.
Purified RasGAP^232 protein and solubilized peptides were dialyzed overnight against buffer containing 20 mM Tris pH 8, 250 mM NaCl in Slide-A-Lyzer 3 ml 10 kDa molecular weight cut off cassettes (Spectra-Por) and Micro Float-A-Lyzer 0.1 to 0.2 ml, 0.1 to […] molecular weight cut off devices (Spectra-Por), respectively. Protein and peptide concentrations were determined by A280 measured on a Nanodrop Lite (Thermo Fisher Scientific) instrument using extinction coefficients of 45,840 M^−1 cm^−1 for RasGAP^232 (and mutants), 917 M^−1 cm^−1 for the doubly phosphorylated EphB4 peptide, and 458.5 M^−1 cm^−1 for the singly phosphorylated EphB4 peptides as determined by ([74]). Dok1 peptide concentration was confirmed using Amino Acid Analysis performed at UC Davis Molecular Structure Facility. Samples were centrifuged for 10 min at 4 °C and degassed for 7 min using a Degassing Station (TA Instruments). ITC experiments were performed on a Nano ITC (TA Instruments) by loading protein into the 190 μl sample cell and titrating 20 times with 2.5 μl peptide in the titration syringe. Concentrations for sample cell and syringe for each trial are included in Table S1. The data were analyzed in NanoAnalyze software (TA Instrument) using blank (constant) and independent models (https://www.tainstruments.com/itcrun-dscrun-nanoanalyze-software/).

[2] = molecular target: T2, RasGAP^232(mut) (RasGAP^232 with R398E/K400E in the C-SH2 domain) (human, UniProt P20936 174-444, C236S | C261S | C372S | C402S | R398E | K400E); assay: ITC; RasGAP^232 protein (WT or mutant) in the 190 µl sample cell, peptide in the syringe, 20 injections of 2.5 µl; 20 mM Tris pH 8, 250 mM NaCl; Nano ITC (TA Instruments); blank (constant) and independent models; values of single trials, averages and stdev; settings: both partners purified
T2 construct: p120RasGAP, human, UniProt P20936, residues 174-444; Made by site-directed mutagenesis of RasGAP^232, which holds the four cysteine to serine mutations; also called C-SH2 mutant; source: E. coli Rosetta (DE3), purified (same protocol as the WT counterpart); not shown: His6, N-terminal, cleaved
T2 sequence (looked up): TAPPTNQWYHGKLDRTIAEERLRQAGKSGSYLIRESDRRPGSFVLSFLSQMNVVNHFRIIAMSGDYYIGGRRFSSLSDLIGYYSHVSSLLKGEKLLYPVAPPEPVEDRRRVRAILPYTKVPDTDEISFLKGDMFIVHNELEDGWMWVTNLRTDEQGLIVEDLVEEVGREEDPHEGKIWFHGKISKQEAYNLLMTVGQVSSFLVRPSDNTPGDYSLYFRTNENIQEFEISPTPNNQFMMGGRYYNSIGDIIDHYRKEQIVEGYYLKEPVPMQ

[3] = molecular target: T3, RasGAP^232(mut) (RasGAP^232 with R398E/K400E in the C-SH2 domain) (human, UniProt P20936 174-444, R398E | K400E | C236 | C261 | C372 | C402); assay: ITC; protein in the 190 ul sample cell, titrated 20 times with 2.5 ul peptide from the syringe; 20 mM Tris pH 8, 250 mM NaCl; Nano ITC (TA Instruments); independent binding model; settings: both partners purified
T3 construct: p120RasGAP (RASA1), human, UniProt P20936, residues 174-444, mutant of RasGAP^232 in the C-SH2 domain; also called C-SH2 mutant; source: E. coli Rosetta (DE3), purified (same protocol as the WT: Ni-NTA, TEV cleavage, anion exchange, SEC)
T3 sequence (looked up): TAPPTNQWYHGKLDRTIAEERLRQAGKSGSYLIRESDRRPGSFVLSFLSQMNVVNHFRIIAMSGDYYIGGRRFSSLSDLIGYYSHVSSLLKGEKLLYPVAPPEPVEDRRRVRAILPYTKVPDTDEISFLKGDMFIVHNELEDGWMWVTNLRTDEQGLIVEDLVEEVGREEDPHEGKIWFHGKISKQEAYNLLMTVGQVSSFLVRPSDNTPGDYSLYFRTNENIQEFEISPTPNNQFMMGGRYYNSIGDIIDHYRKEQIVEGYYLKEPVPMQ

[4] = molecular target: T4, RasGAP^232 (p120RasGAP N-SH2, SH3 and C-SH2 domains, residues 174-444) (human, UniProt P20936 174-444, C236 | C261 | C372 | C402); assay: as above; settings: both partners purified
T4 construct: p120RasGAP (RASA1), human, UniProt P20936, residues 174-444 (N-SH2, SH3, C-SH2), with four cysteine to serine mutations; also called WT RasGAP^232; apo RasGAP^232; source: E. coli Rosetta (DE3), purified (Ni-NTA, TEV cleavage, anion exchange, SEC)
T4 sequence (looked up): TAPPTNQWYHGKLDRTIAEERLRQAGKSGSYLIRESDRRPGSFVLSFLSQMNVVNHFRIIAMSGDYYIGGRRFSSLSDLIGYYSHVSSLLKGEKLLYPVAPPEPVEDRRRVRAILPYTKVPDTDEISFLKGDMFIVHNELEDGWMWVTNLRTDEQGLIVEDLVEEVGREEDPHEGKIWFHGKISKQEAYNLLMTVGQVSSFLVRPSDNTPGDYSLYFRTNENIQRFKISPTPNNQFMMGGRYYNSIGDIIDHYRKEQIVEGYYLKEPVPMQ

[5] = ITC, average of trials (Table S1)

CC(=O)N[C@@H](CC(=O)O)C(=O)N1CCC[C@H]1C(=O)N[C@@H](Cc1ccccc1)C(=O)N[C@H](C(=O)N[C@@H](Cc1ccc(OP(=O)(O)O)cc1)C(=O)N[C@@H](CCC(=O)O)C(=O)N[C@@H](CC(=O)O)C(=O)N1CCC[C@H]1C(=O)N[C@@H](CC(N)=O)C(=O)N[C@@H](CCC(=O)O)C(N)=O)[C@@H](C)O [pY596 EphB4] (Ac-DPFT[pY]EDPNE-NH2)
weaker binding than the doubly phosphorylated EphB4 peptide ([1]; ITC Kd, singly versus doubly phosphorylated EphB4 peptide): about 10 fold
n ([1]; ITC stoichiometry, mean ± SD of trials): 0.6 ± 0.2
-T∆S [1, 5]: -1.2 kcal/mol
Ka [1, 5]: 0.05 µM⁻¹
∆G [1, 5]: -6.38 kcal/mol
ΔH ([1]; ITC, mean ± SD of trials): -5.26 kcal/mol and -5.26 ± 0.96 kcal/mol
ΔS ([1]; ITC, mean ± SD of trials): 15 J/mol∗K and 15 ± 13 J/mol∗K
-T∆S ([1]; trial 2, ITC): -1.58 kcal/mol
∆G ([1]; trial 2, ITC): -6.36 kcal/mol
∆H ([1]; trial 2, ITC): -4.8 kcal/mol
∆S ([1]; trial 2, ITC): 22.0 J/mol*K
-T∆S ([1]; trial 3, ITC): -0.048 kcal/mol
Ka ([1]; trial 3, ITC): 0.05 µM⁻¹
∆G ([1]; trial 3, ITC): -6.48 kcal/mol
∆H ([1]; trial 3, ITC): -6.43 kcal/mol
∆S ([1]; trial 3, ITC): 0.8 J/mol*K

B1: singly phosphorylated EphB4 peptide pY590 (peptide)
peptide: Ac-GTKV[pY]IDPFT-NH2
SMILES: CC[C@H](C)[C@H](NC(=O)[C@H](Cc1ccc(OP(=O)(O)O)cc1)NC(=O)[C@@H](NC(=O)[C@H](CCCCN)NC(=O)[C@@H](NC(=O)CNC(C)=O)[C@@H](C)O)C(C)C)C(=O)N[C@@H](CC(=O)O)C(=O)N1CCC[C@H]1C(=O)N[C@@H](Cc1ccccc1)C(=O)N[C@H](C(N)=O)[C@@H](C)O
notes: EphB4, UniProt P54760, residues 586-595; also called pY590 EphB4; source: synthetic peptide, bought: GenScript
Kd [2]: 24.2 µM and 14.6 µM and 9.7 µM
stoichiometry N [2]: 0.7 and 0.8

B2: singly phosphorylated EphB4 peptide pY596 (peptide)
peptide: Ac-DPFT[pY]EDPNE-NH2
SMILES: CC(=O)N[C@@H](CC(=O)O)C(=O)N1CCC[C@H]1C(=O)N[C@@H](Cc1ccccc1)C(=O)N[C@H](C(=O)N[C@@H](Cc1ccc(OP(=O)(O)O)cc1)C(=O)N[C@@H](CCC(=O)O)C(=O)N[C@@H](CC(=O)O)C(=O)N1CCC[C@H]1C(=O)N[C@@H](CC(N)=O)C(=O)N[C@@H](CCC(=O)O)C(N)=O)[C@@H](C)O
notes: EphB4 juxtamembrane region, UniProt P54760; also called pY596 EphB4; source: synthetic peptide, bought: GenScript
Kd [3]: 21 ± 3 µM
dH [3]: -5.26 ± 0.956 kcal/mol
stoichiometry N [3]: 0.6 ± 0.2

B3: singly phosphorylated EphB4 peptide pY596 (peptide)
peptide: Ac-DPFT[pY]EDPNE-NH2
SMILES: CC(=O)N[C@@H](CC(=O)O)C(=O)N1CCC[C@H]1C(=O)N[C@@H](Cc1ccccc1)C(=O)N[C@H](C(=O)N[C@@H](Cc1ccc(OP(=O)(O)O)cc1)C(=O)N[C@@H](CCC(=O)O)C(=O)N[C@@H](CC(=O)O)C(=O)N1CCC[C@H]1C(=O)N[C@@H](CC(N)=O)C(=O)N[C@@H](CCC(=O)O)C(N)=O)[C@@H](C)O
notes: EphB4, UniProt P54760; also called pY596 EphB4; source: synthetic peptide, bought: GenScript
Ka [2]: 40000 M⁻¹ and 50000 M⁻¹
Kd [2]: 24 µM and 22 µM and 18 µM
stoichiometry N [2]: 0.7 and 0.8 and 0.4

B4: singly phosphorylated EphB4 peptide pY590 (residues 586-595) (peptide)
peptide: Ac-GTKV[pY]IDPFT-NH2
SMILES: CC[C@H](C)[C@H](NC(=O)[C@H](Cc1ccc(OP(=O)(O)O)cc1)NC(=O)[C@@H](NC(=O)[C@H](CCCCN)NC(=O)[C@@H](NC(=O)CNC(C)=O)[C@@H](C)O)C(C)C)C(=O)N[C@@H](CC(=O)O)C(=O)N1CCC[C@H]1C(=O)N[C@@H](Cc1ccccc1)C(=O)N[C@H](C(N)=O)[C@@H](C)O
notes: EphB4 juxtamembrane region, UniProt P54760, residues 586-595; also called pY590 EphB4; source: synthetic peptide, bought: GenScript
Kd [3]: 16 ± 7 µM
dH [3]: -3.7 kcal/mol
stoichiometry N [3]: 0.8 ± 0.1

B5: doubly phosphorylated Dok1 peptide (residues 291-322, pY296 and pY315) (peptide)
peptide: Ac-SPPAL[pY]AEPLDSLRIAPCPSQDSL[pY]SDPLDST-NH2
SMILES: CC[C@H](C)[C@H](NC(=O)[C@H](CCCNC(=N)N)NC(=O)[C@H](CC(C)C)NC(=O)[C@H](CO)NC(=O)[C@H](CC(=O)O)NC(=O)[C@H](CC(C)C)NC(=O)[C@@H]1CCCN1C(=O)[C@H](CCC(=O)O)NC(=O)[C@H](C)NC(=O)[C@H](Cc1ccc(OP(=O)(O)O)cc1)NC(=O)[C@H](CC(C)C)NC(=O)[C@H](C)NC(=O)[C@@H]1CCCN1C(=O)[C@@H]1CCCN1C(=O)[C@H](CO)NC(C)=O)C(=O)N[C@@H](C)C(=O)N1CCC[C@H]1C(=O)N[C@@H](CS)C(=O)N1CCC[C@H]1C(=O)N[C@@H](CO)C(=O)N[C@@H](CCC(N)=O)C(=O)N[C@@H](CC(=O)O)C(=O)N[C@@H](CO)C(=O)N[C@@H](CC(C)C)C(=O)N[C@@H](Cc1ccc(OP(=O)(O)O)cc1)C(=O)N[C@@H](CO)C(=O)N[C@@H](CC(=O)O)C(=O)N1CCC[C@H]1C(=O)N[C@@H](CC(C)C)C(=O)N[C@@H](CC(=O)O)C(=O)N[C@@H](CO)C(=O)N[C@H](C(N)=O)[C@@H](C)O
notes: Dok1, UniProt Q99704, residues 291-322; also called pYpY Dok1; source: synthetic peptide, bought: GenScript
Kd [4]: 0.03 ± 0.02 µM
dH [4]: -18.6 ± 0.717 kcal/mol
stoichiometry N [4]: 0.8 ± 0.1
